Here are results for 14 compounds from PMC4204995, “Inhibition of Influenza Virus Replication by Targeting Broad Host Cell Pathways” (PLoS ONE, 2014).

The test system of series [1] is viral acidic polymerase (PA) expression, PR8 virus. The format is cell-based, influenza A virus.
The next series is described as follows: in vitro. The note with it: dog.
In series [2] the test system is A/Puerto Rico/8/34 (H1N1). The experiment in a line: microbe, parasite or virus in culture. The format is cell-based, influenza A virus. The conditions noted are these: for EC50: read-out: EC50 values, A/Puerto Rico/8/34 (H1N1).
A further series relates to PR8 virus. The format is cell-based, influenza A virus.
A further series deals with A/Hong Kong/X31 (H3N2). Kind of series: microbe, parasite or virus in culture. The conditions noted are these: read-out: EC50 values, A/Hong Kong/X31 (H3N2). The format is cell-based, influenza A virus.
The test system of series [3] is A/California-like/2009 (H1N1). The experiment in a line: microbe, parasite or virus in culture. The format is cell-based, influenza A virus.
Series [4] in a line: XTT cytotoxicity assay in MDCK cells. The conditions noted are these: dog.
Series [5] can be described thus: XTT cytotoxic assay in Calu-3 cells. The format is cell-based. The conditions noted are these: human.
For series [6], the system named is A/Puerto Rico/8/34 (H1N1). The experiment in a line: microbe, parasite or virus in culture. The format is cell-based. The conditions noted are these: Influenza A virus, H1N1 / PR8, Calu-3, 48 h, read-out: EC50 values.
Series [7] has as its system A/Swine/OTH-33-2/2009 (H1N1). The format is cell-based, influenza A virus.
The test system of another series is PR8 influenza virus. The format is cell-based, influenza A virus.
Series [8] has as its system MDCK cells. The experiment in a line: XTT cytotoxicity assay in MDCK cells. The note with it: MDCK cells; for CC50: XTT cell viability, 2 days. Background: Formazan colour is commonly taken as a measure of viable cells.
Series [9] has as its system MDCK cells.
The mark [10] stands for this setting: Influenza A virus, H1N1, MDCK, 48 h.
Where [11] appears, read: Influenza A virus, H3N2, MDCK, 48 h.
Setting [12] is: Influenza A virus, H1N1, MDCK, 48 h, read-out: EC50 values, A/California-like/2009 (H1N1).
Setting [13] is: read-out: EC50 values, A/California-like/2009 (H1N1).

Where “and” joins values, the source holds several entries; their conditions need not be identical. Equal entries are not always repeated. Structures can show the parent of a compound that is named as a salt. Where two headings read alike, the source gives them in different places. Where only a bound is given, the exact number is not on record here.

`CN(C)c1nc(N)c(C(=O)NC(=N)N)nc1Cl` [5-(N,N-Dimethyl)amiloride hydrochloride, 5-(N,N-Dimethyl) amiloride hydrochloride]: the “effect on PA gene expression” value in series [1] is recorded as “almost completely abolished”. Further, the CC50 at 2 days in “in vitro” was 175 ± 10.2 µM. Further, the values for the EC50 (in [2] (setting [10]); with A/Hong Kong/X31 (H3N2) (setting [11]); in series [3] (setting [12])) were 31.1 ± 7.72 µM, 20.4 ± 8.62 µM and 63.5 ± 5.77 µM, respectively. In addition, in the series on PR8 virus, the “inhibition of viral replication” value was 80%.
For `CNc1ccc2oc(C[C@H]3O[C@@]4(CC[C@H]3C)O[C@H]([C@H](C)C(=O)c3ccc[nH]3)[C@H](C)C[C@H]4C)nc2c1C(=O)O` [A23187 (calcimycin), calcimycin (A23187)], the “decrease of PA expression” value in series [1] amounted to 42%. The EC50 in [2] (setting [10]) was 0.08 ± 0.01 µM; with A/Hong Kong/X31 (H3N2) (setting [11]), 0.08 ± 0.01 µM; in [3] (setting [12]) it was 0.22 ± 0.01 µM. The “effect on viral replication” value in the series on PR8 virus was “completely inhibit viral replication”. The CC50 at 2 days in [4] came out at 0.413 ± 0.21 µM.
On to `CCN(CC)Cc1cc(Nc2ccnc3cc(Cl)ccc23)ccc1O` [Amodiaquine, amodiaquin dihydrochloride dihydrate], for which the CC50 is 53.6 ± 8.8 µM in series [5] and 26.2 ± 8.43 µM in the series “in vitro”. In [1], the “decrease of PA expression” value is reported as 82%. In addition, the EC50 was 1.25 to 2.5 µM in [6], 2.76 ± 0.95 µM in series [2] (setting [10]), 2.63 ± 0.9 µM in the series on A/Hong Kong/X31 (H3N2) (setting [11]) and 1.48 ± 0.92 µM in series [3] (setting [12]). Besides, in series [7], the inhibition of replication result was “more than 60%”. For the same compound, the “reduction of PR8 replication” value in series [2] was around 26%. Also, the “effect on viral replication” value in the series with PR8 virus was “abrogate viral replication”. Further, the “effect on viral replication in growth kinetics assays” value with PR8 influenza virus is “inhibited viral replication”.
On to `CO/C1=C\C(C)=C\[C@@H](C)[C@@H](O)[C@@H](C)C/C(C)=C/C=C/[C@H](OC)[C@@H]([C@@H](C)[C@@H](O)[C@H](C)[C@@]2(O)C[C@@H](O)[C@H](C)[C@@H](C(C)C)O2)OC1=O` [Bafilomycin A, bafilomycin A], for which the “decrease of PA expression” value in [1] was “more than 90%”. Besides, the EC50 is 0.004 µM in [2] and below 0.004 µM in [3] (read-out: EC50 values, A/California-like/2009 (H1N1), result as symbol). The compound further yielded a CC50 with MDCK cells [8] (footnote c: [ ] in nM) of 16.8 ± 9.02 nM.
Take `COc1cc(CNC(=O)CCCC/C=C/C(C)C)ccc1O` [Capsaicin, capsaicin]: the “decrease of PA expression” value in series [1] is on record as “approximately 48%”. Also, the values for the EC50 (in [2] (setting [10]); with A/Hong Kong/X31 (H3N2) (setting [11]); in series [3] (setting [12])) were 58.8 ± 8.32 µM, 55.2 ± 7.2 µM and 44.7 ± 8.15 µM, respectively. In series [4], the CC50 at 2 days amounted to 157 ± 9.63 µM. In addition, the toxicity entry in the series on MDCK cells [8] (at 100 µM) is “no significant toxicity”. In the series on MDCK cells [8] (at 200 µM), this compound came in with a cell death of 50%.
`CCN(CC)CCCC(C)Nc1ccnc2cc(Cl)ccc12` (stereo not shown) [Chloroquine, chloroquine diphosphate salt]: the inhibition of replication entry in [7] was “more than 60%”. Also, the results for the EC50 (in [2] (setting [10]); with A/Hong Kong/X31 (H3N2) (setting [11]); in series [3] (setting [12])) were 0.61 ± 0.91 µM, 4.31 ± 0.96 µM and 4.01 ± 0.8 µM, respectively. Also, the “effect on viral replication” value in the series with PR8 virus is given as “abrogate viral replication”.
As for `OC(c1cc(C(F)(F)F)nc2c(C(F)(F)F)cccc12)C1CCCCN1` (stereo not shown) [Mefloquine, mefloquine hydrochloride], the “decrease of PA expression” value in series [1] was 82%. This compound displayed a CC50 in “in vitro” of 22.9 ± 1.3 µM. Also, the EC50 in series [2] (setting [10]) was 5.13 ± 0.87 µM; with A/Hong Kong/X31 (H3N2) (setting [11]), 6.66 ± 0.75 µM; in [3] (Influenza A virus, H1N1, MDCK, read-out: EC50 values, A/California-like/2009 (H1N1), result as symbol), above 22.9 µM.
Consider `CCC(CC)O[C@@H]1C=C(C(=O)O)C[C@H](N)[C@H]1NC(C)=O` [Oseltamivir carboxylate], for which the “reduction of PR8 replication” value in [2] was “approximately 30%”. In addition, the EC50 was 0.05 µM and 0.0499 µM in series [2]; 0.313 µM in the series on PR8 virus; 0.00074 ± 8e-05 µM with A/Hong Kong/X31 (H3N2); 0.103 ± 0.0321 µM in series [3] (setting [13]). The compound also yielded a CC50 with MDCK cells [9] above 1000 µM.
As for `COc1cc(NC(C)CCCN)c2ncccc2c1` (stereo not shown) [Primaquine, primaquine diphosphate], in [1], the “decrease of PA expression” value is 62%. In addition, the inhibition of replication entry in series [7] is “less than 20%”. Further, the EC50 in series [2] (setting [10]) was determined as 8.58 ± 0.89 µM; in the series on A/Hong Kong/X31 (H3N2) (setting [11]), 29.5 ± 9.42 µM; in [3] (setting [12]) it was 28.6 ± 9.45 µM.
With `CCN(CC)CCCC(C)Nc1c2ccc(Cl)cc2nc2ccc(OC)cc12` (stereo not shown) [Quinacrine, quinacrine dihydrochloride], the “decrease of PA expression” value in [1] was “more than 90%”. Further, the CC50 in the series “in vitro” came to 14.6 ± 8.51 µM. In addition, the inhibition of replication entry in series [7] was “more than 60%”. For the same compound, the EC50 in series [2] (setting [10]) amounted to 2.96 ± 0.87 µM; with A/Hong Kong/X31 (H3N2) (setting [11]), 5.97 ± 0.91 µM; in series [3] (setting [12]) it was 1.88 ± 0.87 µM. Besides, the toxicity result with MDCK cells [9] is recorded as “no toxicity”. Moreover, in the series on MDCK cells [9] (dog), the cell death is listed as 10%.
As for `C=C[C@H]1C[N@@]2CC[C@H]1C[C@@H]2[C@@H](O)c1ccnc2ccc(OC)cc12` [Quinidine, quinidine anhydrous], the “decrease of PA expression” value in [1] is reported as “more than 90%”. Also, in “in vitro”, the CC50 was determined as 167 ± 94.2 µM. Moreover, the “dose range at which IAV replication is inhibited” value in [2] is on record as at least 16.2 µM. Also, the EC50 in series [2] (setting [10]) is 16.2 ± 8.9 µM; in the series with A/Hong Kong/X31 (H3N2) (setting [11]), 19.8 ± 8.83 µM; in series [3] (setting [12]), 5.11 ± 0.76 µM.
In the case of `C=C[C@H]1C[N@@]2CC[C@H]1C[C@H]2[C@H](O)c1ccnc2ccc(OC)cc12` [Quinine, Quinine sulfate], the “decrease of PA expression” value in series [1] is on record as “more than 90%”. Also, the CC50 in the series “in vitro” worked out at 409 ± 82.2 µM. The “concentration needed to abrogate viral replication” value in [2] stood at 50 µM; in the series with PR8 virus, 60 µM. Also, the figures for the EC50 (in [2] (setting [10]); in the series with A/Hong Kong/X31 (H3N2) (setting [11]); in series [3] (setting [12])) were 9.1 ± 0.89 µM, 17.1 ± 8.7 µM and 12.2 ± 8.49 µM, respectively. Moreover, the “effect on viral replication” value with PR8 virus is on record as “abrogate viral replication”.
In the case of `CCN(CC)CCCCCCCCOC(=O)c1cc(OC)c(OC)c(OC)c1.Cl` [TMB-8, TMB-8 hydrochloride], the “effect on PA gene expression” value in series [1] was “almost completely abolished”. Besides, in [2] (10 µM), the “inhibition of PR8 replication” value stood at 90%. Moreover, the EC50 in series [2] worked out at 2.5 ± 0.91 µM; in the series with A/Hong Kong/X31 (H3N2), 21.7 ± 9.31 µM; in series [3] (setting [13]), 12.7 ± 8.65 µM. Moreover, in the series with PR8 virus, the “effect on viral replication” value is reported as “completely inhibit viral replication”. The compound also registered a cell death with MDCK cells [9] of 25%. The toxicity entry with MDCK cells [9] is “no significant toxicity”. Moreover, the CC50 with MDCK cells [8] turned out to be 52300 ± 8380 nM.
On to `COc1ccc(CCN(C)CCCC(C#N)(c2ccc(OC)c(OC)c2)C(C)C)cc1OC` (stereo not shown) [Verapamil, verapamil hydrochoride], for which the EC50 is 1.25 to 2.5 µM in series [6] and 19.6 ± 8.75 µM with A/Hong Kong/X31 (H3N2) (setting [11]).
